Reference: patent publication US5041567A, “Antibacterial monic acid derivatives” (Beecham Group plc, priority 1982, dated 1991)
In brackets after ≈: the same amount, converted by molar mass. Where two headings read alike, the source gives them in different places.

How the values were obtained:
Bord. bronchiseptica B09 = assay: MIC against veterinary bacteria in vitro; conditions: Bordetella bronchiseptica, B09, 18 h
Description: (§1) The activity of the compounds of the Examples against various veterinarily important bacteria, was assayed in vitro using two-fold serial dilutions in Diagnostic Sensitivity Test Agar inoculated with 10^4 organisms.

[1] = system: M. suipneumoniae NCTC 10110; assay: MIC against mycoplasma in vitro; format: cell-based; conditions: Mesomycoplasma hyopneumoniae, NCTC10110, 144 h
[2] = system: Pasteurella multocida 1633; assay: MIC against human bacteria in vitro; format: cell-based; conditions: Pasteurella multocida 1633; 5% chocolated horse blood agar, 18 hours; read-out: MIC
[3] = system: Staph. aureus 152 (pen. sens); assay: MIC against veterinary bacteria in vitro; conditions: Staphylococcus aureus, 18 h
Description: as §1

Strep. agalactiae SPA1 = assay: MIC against veterinary bacteria in vitro; conditions: Streptococcus agalactiae, SPA1, 18 h
Description: as §1

[4] = system: Ps. aeruginosa NCTC 10662; assay: MIC against human bacteria in vitro; format: cell-based; conditions: Pseudomonas aeruginosa, NCTC10662; Ps. aeruginosa NCTC 10662; 5% chocolated horse blood agar, 18 hours; read-out: MIC
M. pneumoniae ATCC 15492 = assay: MIC against mycoplasma in vitro; format: cell-based; conditions: Mycoplasmoides pneumoniae, ATCC15492, 144 h
[5] = system: Erysipelothrix rhusiopathiae NCTC 8163; assay: MIC against veterinary bacteria in vitro; conditions: Erysipelothrix rhusiopathiae, NCTC8163, 18 h
Description: as §1

Staph. aureus Russell = assay: MIC against human bacteria in vitro; format: cell-based; conditions: Staphylococcus aureus; Staph. aureus Russell; 5% chocolated horse blood agar, 18 hours; read-out: MIC
Strep. pneumoniae CN33 = assay: MIC against human bacteria in vitro; format: cell-based; conditions: Streptococcus pneumoniae; Strep. pneumoniae CN33; 5% chocolated horse blood agar, 18 hours; read-out: MIC
M. gallisepticum S6 = assay: MIC against mycoplasma in vitro; format: cell-based; conditions: Mycoplasmoides gallisepticum
Sarcina lutea 8340 = assay: MIC against human bacteria in vitro; format: cell-based; conditions: Micrococcus luteus; Sarcina lutea 8340; 5% chocolated horse blood agar, 18 hours; read-out: MIC
Staph. aureus Oxford = assay: MIC against veterinary bacteria in vitro; conditions: Staphylococcus aureus, 18 h
Description: as §1

E. coli ESS = assay: MIC against human bacteria in vitro; format: cell-based; conditions: Escherichia coli; E. coli ESS; 5% chocolated horse blood agar, 18 hours; read-out: MIC
M. suipneumoniae MS 16 = assay: MIC against mycoplasma in vitro; format: cell-based; conditions: Mesomycoplasma hyopneumoniae, MS16, 144 h
M. suipneumoniae HK(2) = assay: MIC against mycoplasma in vitro; format: cell-based; conditions: Mesomycoplasma hyopneumoniae, 144 h
E. coli E1 = assay: MIC against veterinary bacteria in vitro; conditions: Escherichia coli, E1, 18 h
Description: as §1

M. hyorhinis ATCC 23234 = assay: MIC against mycoplasma in vitro; format: cell-based; conditions: Mesomycoplasma hyorhinis, ATCC23234, 144 h
M. suipneumoniae TAM 6N = assay: MIC against mycoplasma in vitro; format: cell-based; conditions: Mesomycoplasma hyopneumoniae, TAM6N, 144 h
S. typhimurium S18 = assay: MIC against veterinary bacteria in vitro; conditions: Salmonella enterica, TYPHIMURIUM, 18 h
Description: as §1

M. suipneumoniae JF 435 = assay: MIC against mycoplasma in vitro; format: cell-based; conditions: Mesomycoplasma hyopneumoniae, JF435, 144 h
Past. multocida PA2 = assay: MIC against veterinary bacteria in vitro; conditions: Pasteurella multocida, PA2, 18 h
Description: as §1

[6] = system: M. bovigenitalium ATCC 14173; assay: MIC against mycoplasma in vitro; format: cell-based; conditions: 144 h
S. dublin S7 = assay: MIC against veterinary bacteria in vitro; conditions: Salmonella enterica, S7, 18 h
Description: as §1

Strep. agalactiae 2788-B = assay: MIC against human bacteria in vitro; format: cell-based; conditions: Streptococcus agalactiae; Strep. agalactiae 2788-B; 5% chocolated horse blood agar, 18 hours; read-out: MIC
M. suipneumoniae UCD 1 = assay: MIC against mycoplasma in vitro; format: cell-based; conditions: Mesomycoplasma hyopneumoniae, UCD1, 144 h
Bord. bronchiseptica B08 = assay: MIC against veterinary bacteria in vitro; conditions: Bordetella bronchiseptica, B08, 18 h
Description: as §1

E. coli NCTC 10418 = assay: MIC against veterinary bacteria in vitro; conditions: Escherichia coli, NCTC10418, 18 h
Description: as §1

[7] = system: Haemophilus influenzae Wy21; assay: MIC against human bacteria in vitro; format: cell-based; conditions: Haemophilus influenzae Wy21; 5% chocolated horse blood agar, 18 hours; read-out: MIC
[8] = system: M. suipneumoniae ATCC 25095; assay: MIC against mycoplasma in vitro; format: cell-based; conditions: Mesomycoplasma hyopneumoniae, ATCC25095, 144 h
Staph. aureus W2827 = assay: MIC against human bacteria in vitro; format: cell-based; conditions: Staphylococcus aureus; Staph. aureus W2827; 5% chocolated horse blood agar, 18 hours; read-out: MIC
[9] = system: Strep. suis (group D) SPS11; assay: MIC against veterinary bacteria in vitro; conditions: Streptococcus suis, 18 h
Description: as §1

M. suipneumoniae NB12 = assay: MIC against mycoplasma in vitro; format: cell-based; conditions: Mesomycoplasma hyopneumoniae

| SMILES | MIC (Bord. bronchiseptica B09) [µg/mL] | MIC [2] [µg/mL] | MIC [3] [µg/mL] | MIC (Strep. agalactiae SPA1) [µg/mL] | MIC [4] [µg/mL] | MIC [5] [µg/mL] | MIC (Staph. aureus Russell) [µg/mL] | MIC (Strep. pneumoniae CN33) [µg/mL] | MIC (Sarcina lutea 8340) [µg/mL] | MIC (Staph. aureus Oxford) [µg/mL] | MIC (E. coli ESS) [µg/mL] | MIC (M. suipneumoniae MS 16) [µg/mL] | MIC (E. coli E1) [µg/mL] | MIC (M. hyorhinis ATCC 23234) [µg/mL] | MIC (S. typhimurium S18) [µg/mL] | MIC (Past. multocida PA2) [µg/mL] | MIC [6] [µg/mL] | MIC (S. dublin S7) [µg/mL] | MIC (Strep. agalactiae 2788-B) [µg/mL] | MIC (Bord. bronchiseptica B08) [µg/mL] | also measured |
| --- | --- | --- | --- | --- | --- | --- | --- | --- | --- | --- | --- | --- | --- | --- | --- | --- | --- | --- | --- | --- | --- |
| C/C(=C\c1ncc(-c2ccc(C=O)cc2)o1)C[C@@H]1OC[C@H](C[C@@H]2O[C@H]2[C@@H](C)[C@H](C)O)[C@@H](O)[C@H]1O [Example 15, 5-p-Formylphenyl-2-(1-normon-2-yl) oxazole A] | 20 (≈ 42.4 µM) | 32 (≈ 67.9 µM) | 0.625 (≈ 1.33 µM) | 1.25 (≈ 2.65 µM) | > 128 | > 80 | 8 (≈ 17 µM) | 8 (≈ 17 µM) | > 128 | 1.25 (≈ 2.65 µM) | 16 (≈ 33.9 µM) | 0.25 (≈ 0.53 µM) | > 80 | 0.25 (≈ 0.53 µM) | > 80 | < 0.039 | 0.05 (≈ 0.106 µM) | > 80 | 8 (≈ 17 µM) | 80 (≈ 170 µM) | MIC ([1]; M. suipneumoniae NCTC 10110, 6 days, 37° C., read-out: MIC): 0.5 µg/mL (≈ 1.06 µM); MIC (M. pneumoniae ATCC 15492): 1 µg/mL (≈ 2.12 µM); MIC (M. gallisepticum S6; S6, 144 h): 1 µg/mL (≈ 2.12 µM); MIC (M. suipneumoniae HK(2); M. suipneumoniae HK(2), 6 days, 37° C., read-out: MIC): 0.5 µg/mL (≈ 1.06 µM); MIC (M. suipneumoniae TAM 6N; M. suipneumoniae TAM 6N, 6 days, 37° C., read-out: MIC): 0.5 µg/mL (≈ 1.06 µM); MIC (M. suipneumoniae JF 435; M. suipneumoniae JF 435, 6 days, 37° C., read-out: MIC): 0.5 µg/mL (≈ 1.06 µM); MIC (M. suipneumoniae UCD 1; M. suipneumoniae UCD 1, 6 days, 37° C., read-out: MIC): 0.5 µg/mL (≈ 1.06 µM); MIC (E. coli NCTC 10418): > 80 µg/mL; MIC [7]: 4 µg/mL (≈ 8.48 µM); MIC ([8]; M. suipneumoniae ATCC 25095, 6 days, 37° C., read-out: MIC): 0.5 µg/mL (≈ 1.06 µM); MIC (Staph. aureus W2827): 8 µg/mL (≈ 17 µM); MIC [9]: 20 µg/mL (≈ 42.4 µM); MIC (M. suipneumoniae NB12; 144 h, M. suipneumoniae NB12, Friis broth, 0.9% agarose, 6 days, 37° C., read-out: MIC): 0.5 µg/mL (≈ 1.06 µM) |
| C/C(=C\c1ncc(C)o1)C[C@@H]1OC[C@H](C[C@@H]2O[C@H]2[C@@H](C)[C@H](C)O)[C@@H](O)[C@H]1O [Example 14, 5-Methyl-2-(1-normon-2-yl) oxazole A] | > 80 | 16 (≈ 41.9 µM) | 10 (≈ 26.2 µM) | > 80 | > 128 | > 80 | 16 (≈ 41.9 µM) | 32 (≈ 83.9 µM) | > 128 | 10 (≈ 26.2 µM) | 32 (≈ 83.9 µM) | 2.5 (≈ 6.55 µM) | > 80 | 2.5 (≈ 6.55 µM) | > 80 | 10 (≈ 26.2 µM) | 0.1 (≈ 0.262 µM) | > 80 | 32 (≈ 83.9 µM) | > 80 | MIC [1]: 5 µg/mL (≈ 13.1 µM); MIC (M. pneumoniae ATCC 15492; M. pneumoniae ATCC 15492, 6 days, 37° C., read-out: MIC): > 10 µg/mL; MIC (M. gallisepticum S6; 144 h, M. gallisepticum S6, 6 days, 37° C., read-out: MIC): > 10 µg/mL; MIC (M. suipneumoniae HK(2)): 5 µg/mL (≈ 13.1 µM); MIC (M. suipneumoniae TAM 6N): 5 µg/mL (≈ 13.1 µM); MIC (M. suipneumoniae JF 435): 5 µg/mL (≈ 13.1 µM); MIC (M. suipneumoniae UCD 1): 5 µg/mL (≈ 13.1 µM); MIC (E. coli NCTC 10418): > 80 µg/mL; MIC [7]: 2 µg/mL (≈ 5.24 µM); MIC [8]: 2.5 µg/mL (≈ 6.55 µM); MIC (Staph. aureus W2827): 16 µg/mL (≈ 41.9 µM); MIC [9]: > 80 µg/mL; MIC (M. suipneumoniae NB12; NB12, 144 h): 5 µg/mL (≈ 13.1 µM) |
